Measurements reported in the NIST ThermoML archive (doi:10.1021/je700260f).

Details: 303.15 K, Liquid, Vibrating tube method

FC(C(F)(F)F)C(F)(F)F [1,1,1,2,3,3,3-heptafluoropropane]
Details | mass density [kg/m3]
23528 kPa | 1493.1
23717 kPa | 1493.9
23749 kPa | 1494.1
23780 kPa | 1494.1
23812 kPa | 1494.2
23848 kPa | 1494.4
23884 kPa | 1494.5
23911 kPa | 1494.7
23938 kPa | 1494.6
23969 kPa | 1494.8
24001 kPa | 1494.9
24032 kPa | 1495.2
24063 kPa | 1495.2
24107 kPa | 1495.5
24143 kPa | 1495.5
24178 kPa | 1495.8
24209 kPa | 1495.8
24240 kPa | 1495.8
24271 kPa | 1496.1
24303 kPa | 1496.1
24338 kPa | 1496.2
24370 kPa | 1496.4
24397 kPa | 1496.4
24429 kPa | 1496.6
24461 kPa | 1496.8
24496 kPa | 1496.7
24528 kPa | 1497
24559 kPa | 1497.1
24590 kPa | 1497.1
24626 kPa | 1497.4
24654 kPa | 1497.4
24682 kPa | 1497.4
24714 kPa | 1497.6
24750 kPa | 1497.8
24778 kPa | 1497.8
24809 kPa | 1497.9
24844 kPa | 1498.2
24868 kPa | 1498.2
24901 kPa | 1498.4
24928 kPa | 1498.3
24952 kPa | 1498.5
24987 kPa | 1498.7
25022 kPa | 1498.7
25049 kPa | 1498.9
25077 kPa | 1498.9
25110 kPa | 1499.1
25135 kPa | 1499.1
25167 kPa | 1499.3
25195 kPa | 1499.1
25223 kPa | 1499.5
25247 kPa | 1499.5
25287 kPa | 1499.7
25310 kPa | 1499.8
25346 kPa | 1499.9
25370 kPa | 1499.9
25411 kPa | 1500.1
25443 kPa | 1500.1
25467 kPa | 1500.4
25503 kPa | 1500.4
25528 kPa | 1500.5
25561 kPa | 1500.7
25602 kPa | 1500.8
25630 kPa | 1501
25658 kPa | 1501.1
25686 kPa | 1501
25715 kPa | 1501.2
25740 kPa | 1501.3
25774 kPa | 1501.4
25801 kPa | 1501.6
25837 kPa | 1501.5
25858 kPa | 1501.5
25891 kPa | 1501.9
25911 kPa | 1501.9
25944 kPa | 1502
25972 kPa | 1502.1
26000 kPa | 1502.2
26025 kPa | 1502.4
26056 kPa | 1502.4
26076 kPa | 1502.6
26109 kPa | 1502.6
26134 kPa | 1502.8
26158 kPa | 1502.9
26191 kPa | 1502.9
26216 kPa | 1502.9
26252 kPa | 1503
26284 kPa | 1503.3
26307 kPa | 1503.3
26336 kPa | 1503.4
26361 kPa | 1503.5
26394 kPa | 1503.6
26418 kPa | 1503.8
26512 kPa | 1503.9
26545 kPa | 1504.1
26714 kPa | 1504.6
26743 kPa | 1504.8
26776 kPa | 1504.9
26801 kPa | 1505.1
26834 kPa | 1505.2
26858 kPa | 1505.2
26891 kPa | 1505.3
26924 kPa | 1505.5
26948 kPa | 1505.5
26981 kPa | 1505.7
27006 kPa | 1505.7
27035 kPa | 1505.9
27060 kPa | 1506
27246 kPa | 1506.5
27275 kPa | 1506.7
27304 kPa | 1506.8
27334 kPa | 1506.8
27368 kPa | 1507.1
27464 kPa | 1507.4
28427 kPa | 1510.7
28456 kPa | 1510.8
28486 kPa | 1510.9
28516 kPa | 1510.9
28541 kPa | 1511.1
28576 kPa | 1511.2
28601 kPa | 1511.3
28636 kPa | 1511.4
28661 kPa | 1511.3
28700 kPa | 1511.5
28729 kPa | 1511.7
28768 kPa | 1511.7
28793 kPa | 1511.8
28832 kPa | 1512
28858 kPa | 1512.2
28893 kPa | 1512.3
28924 kPa | 1512.3
28967 kPa | 1512.6
28997 kPa | 1512.6
29020 kPa | 1512.7
29047 kPa | 1512.7
29074 kPa | 1512.8
29113 kPa | 1513
29139 kPa | 1513
29169 kPa | 1513
29196 kPa | 1513.3
29235 kPa | 1513.4
29267 kPa | 1513.4
29298 kPa | 1513.6
29323 kPa | 1513.6
29349 kPa | 1513.7
29389 kPa | 1513.9
29429 kPa | 1514.1
29461 kPa | 1514.1
29492 kPa | 1514.2
29527 kPa | 1514.4
29554 kPa | 1514.5
29584 kPa | 1514.6
29614 kPa | 1514.7
29645 kPa | 1514.6
29676 kPa | 1514.8
29706 kPa | 1515
29746 kPa | 1515
29773 kPa | 1515.3
29800 kPa | 1515.3
29831 kPa | 1515.3
29866 kPa | 1515.5
29892 kPa | 1515.6
29927 kPa | 1515.6
29953 kPa | 1515.7
29984 kPa | 1515.8
30015 kPa | 1516
30043 kPa | 1516.2
30079 kPa | 1516.2
30110 kPa | 1516.3
30145 kPa | 1516.4
30176 kPa | 1516.5
30211 kPa | 1516.5
30247 kPa | 1516.7
30277 kPa | 1516.8
30316 kPa | 1516.9
30341 kPa | 1516.9
30376 kPa | 1517.1
30406 kPa | 1517.2
30437 kPa | 1517.3
30464 kPa | 1517.4
30502 kPa | 1517.5
30529 kPa | 1517.6
30561 kPa | 1517.7
30597 kPa | 1517.8
30619 kPa | 1518
30655 kPa | 1518.1
30678 kPa | 1518.1
30713 kPa | 1518.1
30735 kPa | 1518.4
30769 kPa | 1518.4
30805 kPa | 1518.6
30842 kPa | 1518.6
30873 kPa | 1518.8
30910 kPa | 1518.8
30945 kPa | 1518.9
30977 kPa | 1519.1
31009 kPa | 1519
31044 kPa | 1519.2
31076 kPa | 1519.4
31117 kPa | 1519.6
31149 kPa | 1519.7
31186 kPa | 1519.7
31223 kPa | 1519.8
31256 kPa | 1519.8
31292 kPa | 1519.9
31319 kPa | 1520.1
31351 kPa | 1520.3
